Measured values published in patent publication US20120027815A1, “USE OF PLASMA MEMBRANE CALCIUM ATPASE (PMCA) INHIBITORS TO INHIBIT SPERM MOBILITY” (priority 2003, published 2012).

Assays:
sperm = test: Suppression of sperm mobility, manual counting of motile vs non-motile sperm; format: cell-based, mouse; conditions: incubated 1 hour at 37° C., 30% non-motile without inhibitor
Procedure: The inhibition of sperm function, i.e. the inhibition of sperm mobility, was determined as follows:
PMCA4-deficient male mice were sacrificed and the epididymis of each was prepared. These tissues were placed into 2 ml of a sperm preparation medium (“Sperm Preparation Medium” from the MediCult a/s Company, Möllehaven 12, 4040 Jyllinge, Denmark, comprising: Earle's balanced saline solution, sodium pyruvate, synthetic serum substitute, IIEPES [hydroxy-ethyl-piperazine ethanesulphonic acid], sodium bicarbonate, human serum albumen; penicillin 50,000 IU/liter and streptomycin 50 mg/litre; Kahn, J. A., Human Reproduction 8/9, pages 1414-1419, 1993; Lähteenmaki, A., Human Reproduction 10/1, pages 142-147, 1995) and a subsequent incision was made using a sterile scalpel. All functioning sperm were allowed 15 minutes to swim out of the epididymis. The supernatant containing these sperm was removed and mixed with 500 μl each of increasing concentrations of 5- and 6-carboxyeosindiacetate succinimidyl ester (CE). Following this step, the sperm were incubated for 1 hour at 37° C. CE diffuses into the sperm during this time; the ester is hydrolyzed on the intracellular level. Afterwards, the remaining motile sperm were counted in relation to the non-motile ones.

normal sperm = test: Inhibition of sperm motility evaluated automatically with the CASA System 4.2; format: cell-based, mouse; conditions: Group C: normal sperm, 45 minutes after preparation, 37° C., 30 minutes with 20 μM inhibitor
Procedure: PMCA4-deficient male mice were sacrificed and the epididymis of each was prepared. These tissues were placed into 2 ml of a sperm preparation medium (“Sperm Preparation Medium” from the MediCult a/s Company, Möllehaven 12, 4040 Jyllinge, Denmark, comprising: Earle's balanced saline solution, sodium pyruvate, synthetic serum substitute, IIEPES [hydroxy-ethyl-piperazine ethanesulphonic acid], sodium bicarbonate, human serum albumen; penicillin 50,000 IU/liter and streptomycin 50 mg/litre; Kahn, J. A., Human Reproduction 8/9, pages 1414-1419, 1993; Lähteenmaki, A., Human Reproduction 10/1, pages 142-147, 1995) and a subsequent incision was made using a sterile scalpel. All functioning sperm were allowed 15 minutes to swim out of the epididymis. […] Afterwards, the remaining motile sperm were counted in relation to the non-motile ones.
The inhibition of sperm motility was further evaluated automatically using the CASA System 4.2 from the medeaLAB Company, Erlangen, Germany. […]
For the above automated experimental protocol, the incubation time (compared to manual counting) was shortened (only 30 minutes instead of 1 hour) and the software also recorded non-meaningful objects that were present in the sample, such objects could be readily excluded with manual counting.

PMCA = conditions: in vitro; cited from earlier work

Substance	Non-motile sperm (sperm; CE concentration 5 μM)	Non-motile sperm (sperm; CE concentration 20 μM)	Non-motile sperm (sperm; CE concentration 100 μM)	locally mobile or non-motile (normal sperm; untreated Group A 27%)	Progressive motility (normal sperm; untreated Group A 73%)	Binding to PMCA and influence on PMCA function (PMCA)
5- and 6-carboxyeosindiacetate succinimidyl ester	90%	95%	97%	78%	22%	
Caloxin 2A1: polypeptide with the amino acid sequence VSNSNWPSFPSSGGG, acts extracellularly on PMCA						binds extra-cellularly to PMCA and has an inhibitory influence on the function of the PMCA
